Patent publication US20130165679A1, “ALPHA-GLUCOSIDASE INHIBITOR” (priority 2011, published 2013)
Converted amounts (≈) assume the structure as drawn. Like-named read-outs stand apart in the source and are kept apart here.

Test system: α-glucosidase
Format: biochemical
Settings: for IC50 (concentration to obtain 50% enzyme inhibitory activity): obtained by interpolation from inhibition rate data
Experimental: Examples of unsaturated fatty acid used to analyze its enzyme inhibitive activity as a α-glucosidase inhibitor include oleic acid (Ω9), linoleic acid (Ω6), and α-linolenic acid (Ω3).
In the analytical method, p-nitrophenyl-α-D-glucopyranoside was used as a substrate. The absorbance was measured by spectrophotometry to determine the α-glucosidase inhibition activity of samples (Apostolidis E. Lee C M. In vitro potential of Ascophyllum nodosam phenolic antioxidant-mediated alpha-glucosidase and alpha-amylase inhibition. Journal of Food Science 2010, 75:H97-102; Kang W Y, Song Y L, Zhang L. α-Glucosidase inhibitory and antioxidant properties and antidiabetic activity of Hypericum ascyron L. Medicinal Chemistry Research 2011.20:809-816).
To a 1.5 ml eppendorf tube containing 0.05 ml of sample solution (in 5% methanol), 0.1 ml of α-glucosidase solution (2 U/ml; in 100 mM phosphate buffer, pH 6.9) was added. The mixture was incubated in 37° C. water bath for 10 min, and then 0.05 ml of 5 mM p-nitrophenyl-α-D-glucopyranoside (in 100 mM phosphate buffer, pH 6.9) was added and mixed homogeneously. The mixture was incubated in 37° C. water bath for 10 min, and then in boiling water for 5 min to stop the reaction. After the addition of 1 ml of deionized water, the absorbance at 405 nm was measured by spectrophotometer (U-1800, Hitachi. Tokyo, Japan). • 1. Determining the α-glucosidase inhibition activity of oleic acid (as the α-glucosidase inhibitor): • A. Experimental group: enzyme+substrate+unsaturated fat acid (oleic acid) • B. Control: enzyme+substrate+buffer • C. Background: buffer+buffer+unsaturated fatty acid (oleic acid) • Calculation of the rate of inhibition:
Inhibition rate %=[ODControl−(ODExperimental group−ODBackground)]/ODControl×100%

Compound	Inhibition rate (%) (0.01 mg/ml)	Inhibition rate (%) (0.02 mg/ml)	Inhibition rate (%) (0.04 mg/ml)	IC50 (concentration to obtain 50% enzyme inhibitory activity)	Inhibition rate (%) (0.0125 mg/ml)	Inhibition rate (%) (0.0250 mg/ml)	Inhibition rate (%) (0.0500 mg/ml)	Inhibition rate (%) (0.06 mg/ml)
CCCCCCCC/C=C\CCCCCCCC(=O)O [oleic acid]	11.8 ± 0.99%	52.2 ± 0.55%	96.7 ± 0.06%	22 µg/mL (≈ 77.9 µM)	–	–	–	–
CCCCC/C=C\C/C=C\CCCCCCCC(=O)O [linoleic acid]	–	–	–	33 µg/mL (≈ 118 µM)	2.99 ± 0.36%	30.10 ± 0.54%	91.60 ± 0.62%	–
CC/C=C\C/C=C\C/C=C\CCCCCCCC(=O)O [α-linolenic acid]	–	–	31.6 ± 1.80%	47 µg/mL (≈ 169 µM)	–	–	57.5 ± 2.39%	81.0 ± 0.13%
